Like-named read-outs stand apart in the source and are kept apart here.
Tests used:
[1] = target: T1, human BRD4 bromodomain II (Homo sapiens, UniProt O60885); assay: Bromodomain binding assay (AlphaScreen), BRD4 BDII
T1 construct: human BRD4 bromodomain II [based on Genbank NM_058243, residues 349-460]; host or cells: E. coli
Outline: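 E. coli-expressed N-terminal His6-tagged human BRD4 BDII (residues 349-460) or BDI (residues 44-170) was preincubated 30 min at room temperature with compound (10-point, 3-fold) in pH 7.5 HEPES buffer, 1% DMSO. Displacement of biotinylated tetra-acetylated H4 1-21 peptide was read by AlphaScreen, and IC50 came from curve fitting.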

[2] = tested on: human SKM-1 acute myeloid leukemia cells; assay: SKM-1 antiproliferation cell-based assay (ATPlite); settings: Homo sapiens
Protocol: The cell-based assay indirectly measures cell density (and therefore proliferation and/or survival) by detecting total ATP concentration in a homogeneous format. Briefly, human SKM-1 acute myeloid leukemia cells (Leibniz Institute DSMZ #ACC 547) proliferating in log phase are collected by centrifugation, re-suspended in culture media (RPMI 1640/15% FBS/100 U/mL penicillin/100 μg/mL streptomycin) and diluted to 34722 cells/mL in media after counting. Then 180 μL cells are plated per well into a 96-well tissue-culture treated, clear bottom plate (Coming #3603). A 96-well compound plate (Corning #3357) is then generated by serial dilution of compounds into DMSO over nine concentrations and adding separate negative (DMSO) and positive control (reference compound) wells. Each compound concentration is tested in triplicate. First, 1 μL from each well of the compound plate is added to 99 μL culture media in an intermediate plate and mixed by pipetting. Then 20 μL of the diluted compounds in media are added to the assay plate containing the cells. The assay plate is maintained for 4 days in a standard cell culture incubator. At the end of the incubation period, 100 μL ATPlite Istep (PerkinElmer) is added to the assay plate wells, and the resulting luminescence is detected using an Infinite M1000 or a Spark multimode plate reader (Tecan). Data analysis is performed in Prism (GraphPad Software). For curve fitting, a non-linear regression, variable slope equation is used to calculate cellular IC50s.

[3] = BRD4 BDII AlphaScreen assay, read-out: BRD4 BD2 IC50
[4] = SKM-1, SKM-1 antiproliferation assay
[5] = AlphaScreen assay, Table C2, read-out: BRD4 BDII IC50
[6] = SKM-1, 96 h, SKM-1 antiproliferation assay, 4 days, Table C2

Row | SMILES | IC50 [1, 3] [nM] | GI50 [2, 4] [nM] | IC50 [1, 5] [nM] | GI50 [2, 6] [nM]
1 | COC(=O)OCOc1c(-c2ccc(-n3ccn(C)c3=O)c(Cl)c2)cc(F)cc1-c1cnc(C)c(N2CCN(C(C)C)CC2)c1 [Example 878] | > 100 | 0.3 to 30 |  | 
2 | Cn1ccn(-c2ccc(-c3cc(F)cc(-c4ccnc(N5CCN(C6CCC6)CC5)c4)c3O)cc2Cl)c1=O [Example 619, 1-(3-chloro-3′-(2-(4-cyclobutylpiperazin-l-yl)pyridin-4-yl)-5′-fluoro-2′-hydroxy-[1,1′-biphenyl]-4-yl)-3-methyl-1H-imidazol-2(3H)-one] |  |  | 0.01 to 1 | 0.3 to 30
3 | Cc1cc(-c2ccc(-n3ccn(C)c3=O)c(Cl)c2)c(N)c(-c2cccc(N3CCN(C(C)(C)C)CC3)c2)n1 [Example 992, 1-(4-(3-Amino-2-(3-(4-(tert-butyl)piperazin-1-yl)phenyl)-6-methylpyridin-4-yl)-2-chlorophenyl)-3-methyl-1H-imidazol-2(3H)-one] | 1 to 10 | 0.3 to 30 |  | 
4 | Cc1ncc(-c2cc(F)cc(-c3ccc(-n4ccn(C)c4=O)c(Cl)c3)c2O)cc1N1CC2CCC(C1)N2C(C)C [Example 835, 1-(3-chloro-5′-fluoro-2′-hydroxy-3′-(5-(8-isopropyl-3,8-diazabicyclo[3.2.1]octan-3-yl)-6-methylpyridin-3-yl)-[1,1′-biphenyl]-4-yl)-3-methyl-1H-imidazol-2(3H)-one] |  |  | 1 to 10 | 0.3 to 30
5 | COCC(C)(C)N1CCN(c2cc(-c3cc(F)cc(-c4ccc(-n5ccn(C)c5=O)c(Cl)c4)c3O)cnc2C)CC1 [Example 856] | 1 to 10 | 0.3 to 30 |  | 
6 | Cn1ccn(-c2ccc(-c3cc(F)cc(-c4ccnc(N5CCC(C)(N)C5)c4)c3O)cc2Cl)c1=O (stereo not shown) [Example 686, 1-(3′-(2-(3-amino-3-methylpyrrolidin-1-yl)pyridin-4-yl)-3-chloro-5′-fluoro-2′-hydroxy-[1,1′-biphenyl]-4-yl)-3-methyl-1H-imidazol-2(3H)-one] |  |  | 0.01 to 1 | 0.3 to 30
7 | Cn1ccn(-c2ccc(-c3cc(F)cc(-c4ccc(C(F)(F)F)c(N5CCN(C(C)(C)C)CC5)c4)c3O)cc2Cl)c1=O [Example 810, 1-(3″-(4-(tert-butyl)piperazin-1-yl)-3-chloro-5′-fluoro-2′-hydroxy-4″-(trifluoromethyl)-[1,1′:3′,1″-terphenyl]-4-yl)-3-methyl-1H-imidazol-2(3H)-one] |  |  | 1 to 10 | 30 to 300
8 | CN1CCC2CN(c3cc(-c4cc(F)cc(-c5ccc(-n6ccn(C)c6=O)c(Cl)c5)c4O)ccn3)CC21 (stereo not shown) [Example 658, 1-(3-chloro-5′-fluoro-2′-hydroxy-3′-(2-(1-methylhexahydropyrrolo[3,4-b]pyrrol-5(1H)-yl)pyridin-4-yl)-[1,1′-biphenyl]-4-yl)-3-methyl-1H-imidazol-2(3H)-one] |  |  | 0.01 to 1 | 0.3 to 30
9 | Cn1cc(-c2cc(F)cc(-c3ccc(-n4ccn(C)c4=O)c(Cl)c3)c2O)cc(N2CCC3(CCCN3)C2)c1=O (stereo not shown) [Example 687, 5-(3′-chloro-5-fluoro-2-hydroxy-4′-(3-methyl-2-oxo-2,3-dihydro-1H-imidazol-1-yl)-[1,1′-biphenyl]-3-yl)-1-methyl-3-(1,7-diazaspiro[4.4]nonan-7-yl)pyridin-2(1H)-one] |  |  | 0.01 to 1 | 0.3 to 30
10 | Cn1ccn(-c2ccc(-c3cc(F)cc(-c4ccnc(N5CC6CCC6(N)C5)c4)c3O)cc2Cl)c1=O (stereo not shown) [Example 806, 1-(3′-(2-(1-amino-3-azabicyclo[3.2.0]heptan-3-yl)pyridin-4-yl)-3-chloro-5′-fluoro-2′-hydroxy-[1,1′-biphenyl]-4-yl)-3-methyl-1H-imidazol-2(3H)-one] |  |  | 1 to 10 | 0.3 to 30
11 | Cc1cc(-c2ccc(-n3ccn(C)c3=O)c(Cl)c2)c(O)c(-c2ccnc(N3CC(F)(F)[C@](C)(O)C3)c2)n1 [Example 1037, (R)-1-(2-chloro-4-(2′-(3,3-difluoro-4-hydroxy-4-methylpyrrolidin-1-yl)-3-hydroxy-6-methyl-[2,4′-bipyridin]-4-yl)phenyl)-3-methyl-1,3-dihydro-2H-imidazol-2-one] | 1 to 10 | 0.3 to 30 |  | 
12 | Cn1ccn(-c2ccc(-c3cc(F)cc(-c4cccc(N5CCN(C(C)(C)C)CC5=O)c4)c3O)cc2Cl)c1=O [Example 901] | 0.01 to 1 | 30 to 300 |  | 
13 | Cn1ccn(-c2ccc(-c3cc(F)cc(-c4ccnc(N5CCC(O)(C6CC6)C5)c4)c3O)cc2Cl)c1=O (stereo not shown) [Example 718, 1-(3-chloro-3′-(2-(3-cyclopropyl-3-hydroxypyrrolidin-1-yl)pyridin-4-yl)-5′-fluoro-2′-hydroxy-[1,1′-biphenyl]-4-yl)-3-methyl-1H-imidazol-2(3H)-one] |  |  | 0.01 to 1 | 0.3 to 30
14 | Cn1ccn(-c2ccc(-c3cc(F)cc(-c4cncc(N5CC[C@@](C)(N)C5)c4)c3O)cc2Cl)c1=O [Example 742, (R)-1-(3′-(5-(3-amino-3-methylpyrrolidin-1-yl)pyridin-3-yl)-3-chloro-5′-fluoro-2′-hydroxy-[1,1′-biphenyl]-4-yl)-3-methyl-1H-imidazol-2(3H)-one] |  |  | 0.01 to 1 | 0.3 to 30
15 | COCC(C)(C)N1CCN(c2cc(-c3cc(F)cc(-c4ccc(-n5ccn(C)c5=O)c(Cl)c4)c3O)cnc2OC)CC1 [Example 850, 1-(3-Chloro-5′-fluoro-2′-hydroxy-3′-(6-methoxy-5-(4-(1-methoxy-2-methylpropan-2-yl)piperazin-1-yl)pyridin-3-yl)-[1,1′-biphenyl]-4-yl)-3-methyl-1H-imidazol-2(3H)-one] | 1 to 10 | 0.3 to 30 |  | 
16 | CN(C)[C@@H]1CN(c2cc(-c3cc(F)cc(-c4ccc(-n5ccn(C)c5=O)c(Cl)c4)c3O)ccn2)C[C@H]1O [Example 752, 1-(3-chloro-3′-(2-((3R,4R)-3-(dimethylamino)-4-hydroxypyrrolidin-1-yl)pyridin-4-yl)-5′-fluoro-2′-hydroxy-[1,1′-biphenyl]-4-yl)-3-methyl-1H-imidazol-2(3H)-one] |  |  | 0.01 to 1 | 0.3 to 30
17 | CC(=O)Nc1ccc(-c2cc(C)cc(-c3ccnc(N4CCNCC4)c3)c2O)cc1F [Example 275, N-(3-fluoro-2′-hydroxy-5′-methyl-3′-(2-(piperazin-1-yl)pyridin-4-yl)-[1,1′-biphenyl]-4-yl)acetamide] |  |  | 1 to 10 | 30 to 300
18 | COCc1ncc(-c2cc(F)cc(-c3ccc(N4CCN(C)C4=O)c(Cl)c3)c2O)cc1N1CCNCC1 [Example 399, 1-(3-chloro-5′-fluoro-2′-hydroxy-3′-(6-(methoxymethyl)-5-(piperazin-1-yl)pyridin-3-yl)-[1,1′-biphenyl]-4-yl)-3-methylimidazolidin-2-one] |  |  | 1 to 10 | 30 to 300
19 | Cn1ccn(-c2ccc(-c3cc(F)cc(-c4cccc(N5CC[C@@](C)(O)C5)c4)c3O)cc2Cl)c1=O [Example 807, (R)-1-(3-chloro-5′-fluoro-2′-hydroxy-3″-(3-hydroxy-3-methylpyrrolidin-1-yl)-[1,1′:3′,1″-terphenyl]-4-yl)-3-methyl-1H-imidazol-2(3H)-one] |  |  | 1 to 10 | 30 to 300
20 | CN1CCN(c2ccc(-c3cccc(-c4cncc(N5CC6(CNC6)C5)c4)c3O)cc2F)C1=O [Example 334, 1-(3′-(5-(2,6-diazaspiro[3.3]heptan-2-yl)pyridin-3-yl)-3-fluoro-2′-hydroxy-[1,1′-biphenyl]-4-yl)-3-methylimidazolidin-2-one] |  |  | 10 to 100 | 300 to 3000
21 | CC(C)N1C2CCC1CN(c1cc(-c3cc(F)cc(-c4ccc(-n5ccn(C)c5=O)c(Cl)c4)c3O)ccn1)C2 [Example 730, 1-(3-chloro-5′-fluoro-2′-hydroxy-3′-(2-(8-isopropyl-3,8-diazabicyclo[3.2.1]octan-3-yl)pyridin-4-yl)-[1,1′-biphenyl]-4-yl)-3-methyl-1H-imidazol-2(3H)-one] |  |  | 0.01 to 1 | 0.3 to 30
22 | CC(C)N1CCC12CCN(c1cc(-c3cc(F)cc(-c4ccc(-n5ccn(C)c5=O)c(Cl)c4)c3O)ccn1)C2 (stereo not shown) [Example 748, 1-(3-chloro-5′-fluoro-2′-hydroxy-3′-(2-(1-isopropyl-1,6-diazaspiro[3.4]octan-6-yl)pyridin-4-yl)-[1,1′-biphenyl]-4-yl)-3-methyl-1H-imidazol-2(3H)-one] |  |  | 0.01 to 1 | 0.3 to 30
23 | CC(C)N1CCC12CCN(c1cc(-c3cc(F)cc(-c4ccc(-n5ccn(C)c5=O)c(Cl)c4)c3O)cnc1N(C)C)C2 (stereo not shown) [Example 987, 1-(3-chloro-3′-(6-(dimethylamino)-5-(1-isopropyl-1,6-diazaspiro[3.4]octan-6-yl)pyridin-3-yl)-5′-fluoro-2′-hydroxy-[1,1′-biphenyl]-4-yl)-3-methyl-1H-imidazol-2(3H)-one] | 1 to 10 | 0.3 to 30 |  | 
